Patent US8389573B2, “Glycyrrhetinic acid derivatives” (Wellington Laboratories Inc., priority 2006, dated 2013)
pIC50: −log10 of the molar value.

Assays:
[1] = tested on: PPARγ; experiment: PPARγ-GAL4/pGAL4 transfection and luciferase assay in HT-29 cells; type: cell-based
Protocol: (§1) The Gal4 reporter containing 5× Gal4 response elements (pGal4) was kindly provided by Dr. Marty Mayo (University of North Carolina, Chapel Hill, N.C.). Gal4 DBD-PPARγ construct (gPPARγ) was a gift of Dr. Jennifer L. Oberfield (GlaxoSmithKline Research and Development, Research Triangle Park, N.C.). PPRE3-luc construct contains three tandem PPREs with a minimal TATA sequence in pGL2.
(§2) Colon Cancer cell lines SW480 and HT29 (1×10^5 cells/well) were plated in 12-well plates in DMEM/Ham's F-12 media supplemented with 2.5% charcoal-stripped FBS. After 16 h, various amounts of DNA [i.e., Gal4Luc (0.4 μg), β-Gal (0.04 μg), Gal4PPAR and PPRE3-Luc (0.04 μg)] were transfected using LipofectAMINE™ reagent (Invitrogen) following the manufacturer's protocol. Five hours after transfection, the transfection mix was replaced with complete media containing either vehicle (DMSO) or the indicated ligand for 20 to 22 h. Cells were then lysed with 100 μl of 1× reporter lysis buffer, and 30 μl of cell extract was used for luciferase and […] assays. A LumiCount™ luminometer (PerkinElmer Life and Analytical Sciences) was used to quantitate luciferase and β-Gal activities, and the luciferase activities were normalized to β-Gal activity. Results are expressed as means±S.E. for at least three replicate determinations for each treatment group

[2] = tested on: HT-29 colon cancer cells; experiment: Cell proliferation assay in HT-29 cells; type: cell-based; conditions: Homo sapiens, read-out: IC50, growth inhibition / cell proliferation
Protocol: Human colon carcinoma cell lines SW480 and HT29 were provided by Dr. Stan Hamilton, M.D. Anderson Cancer Center (Houston, Tex.); SW-480 and HT-29 cells were maintained in Dulbecco's modified Eagle's medium nutrient mixture with Ham's F-12 (DMEM/Ham's F-12; Sigma-Aldrich, St. Louis, Mo.) with phenol red supplemented with 0.22% sodium bicarbonate, 0.011% sodium pyruvate, and 5% fetal bovine serum and 10 ml/l 100× antibiotic antimycotic solution (Sigma-Aldrich). Cells were maintained at 37° C. in the presence of 5% CO2.
SW480 and HT 29 Cells (2×10^4) were plated in 12-well plates, and media were replaced the next day with DMEM/Ham's F-12 media containing 2.5% charcoal-stripped FBS and either vehicle (DMSO) or the indicated ligand and dissolved in DMSO. Fresh media and compounds were added every 48 h. Cells were counted at the indicated times using a Coulter Z1 cell counter. Each experiment was done in triplicate, and results are expressed as means±S.E. for each determination

[3] = tested on: LNCaP cells; experiment: Western blot analysis and DNA fragmentation assay in LNCaP cells; type: cell-based, human
Protocol: Cell Proliferation and DNA Fragmentation Assays: LNCaP prostate cancer cells (2×10^4 per well) were added to 12-well plates and allowed to attach for 24 hr. The medium was then changed to DMEM/Ham's F-12 media containing 2.5% charcoal-stripped FBS, and either vehicle (DMSO) or the indicated C-DIMs were added. Fresh medium and indicated compounds were added every 48 hr, and cells were then trypsinized and counted after 2, 4, and 6 days using a Coulter Z1 cell counter (Beckman Coulter, Fullerton, Calif.). Each experiment was done in triplicate, and results are expressed as means±S.E. for each set of three experiments. The DNA fragmentation assay was performed using a BioVision Apoptotic DNA ladder extraction kit (BioVision, Mountain View, Calif.) according to the manufacturer's protocol.
Western Blot Analysis: Cells were seeded in DMEM:Ham's F-12 media containing 2.5% charcoal-stripped FBS for 24 hr and then treated with either the vehicle (DMSO) or the indicated compounds. Cells were collected by scraping in 150 μl high salt lysis buffer (50 mM HEPES, 0.5 M NaCl, 1.5 mM MgCl2, 1 mM EGTA, 10% (v/v) glycerol, 1% (v/v) Triton-X-100 and 5 μL/ml of Protease Inhibitor Cocktail (Sigma). The lysates were incubated on ice for 1 hr with intermittent vortexing followed by centrifugation at 20,000 g for 10 min at 4° C. Before electrophoresis, samples were boiled for 3 min at 100° C.; the amount of protein was determined and 60 μg protein applied per lane. Samples were subjected to SDS-PAGE on 10% gel at 120 V for 3 to 4 hr. Proteins were transferred on to polyvinylidene difluoride membrane (PVDF; Bio-Rad, Hercules, Calif.) at 0.9 amp for 90 min at 4° C. in 1× transfer buffer (48 mM Tris-HCl, 39 mM glycine, and 0.025% SDS). The membranes were blocked for 30 min with 5% TBST-Blotto (10 mM Tris-HCl, 150 mM NaCl (pH 8.0), 0.05% Triton X-100 and 5% non-fat dry milk) and incubated in fresh 5% TBST-Blotto with primary antibody overnight with gentle shaking at 4° C. After washing with TBST for 10 min, the PVDF membrane was incubated with secondary antibody (1:5000) in 5% TBST-Blotto for 2-3 hr. The membrane was washed with TBST for 10 min and incubated with 10 ml of chemiluminescence substrate (PerkinElmer Life Sciences) for 1.0 min and exposed to ImageTeK-H medical imaging film (Eastman American X-ray Supply, Inc.).

[4] = tested on: Panc28 pancreatic cancer cells; experiment: Growth inhibition in Panc28 pancreatic cancer cells; type: cell-based; conditions: Pancreatic cancer cell
[5] = target: T1, PPARγ (Homo sapiens, UniProt P37231); experiment: PPRE3-Luc transfection and luciferase assay in SW480 cells; type: cell-based
T1 construct: endogenous in cells; host or cells: SW480 colon cancer cells
T1 sequence (P37231 1-505): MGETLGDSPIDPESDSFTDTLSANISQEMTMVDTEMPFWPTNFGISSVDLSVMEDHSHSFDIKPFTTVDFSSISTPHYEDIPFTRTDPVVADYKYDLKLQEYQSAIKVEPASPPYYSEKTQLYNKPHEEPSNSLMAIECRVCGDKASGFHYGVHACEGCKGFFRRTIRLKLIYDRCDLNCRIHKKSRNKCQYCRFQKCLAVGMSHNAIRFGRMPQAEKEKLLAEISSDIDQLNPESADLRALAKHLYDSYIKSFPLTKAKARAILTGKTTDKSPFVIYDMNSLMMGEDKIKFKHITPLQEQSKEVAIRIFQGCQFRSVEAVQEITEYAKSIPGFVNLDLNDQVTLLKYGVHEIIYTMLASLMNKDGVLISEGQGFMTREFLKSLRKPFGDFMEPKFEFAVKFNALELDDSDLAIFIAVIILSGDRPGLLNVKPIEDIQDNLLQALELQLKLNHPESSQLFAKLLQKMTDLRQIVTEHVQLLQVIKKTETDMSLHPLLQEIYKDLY
Protocol: as §1, §2

COC(=O)[C@@]1(C)CC[C@]2(C)CC[C@]3(C)C(=CC(=O)[C@@H]4[C@@]5(C)C=C(C#N)C(=O)C(C)(C)[C@@H]5CC[C@]43C)[C@@H]2C1 [β-CDODA-Me, Methyl 2-cyano-3,11-dioxo-18β-oleana-1,12-dien-30-oate]
PPARγ transactivation (GAL4-PPARγ/GAL4-Luc) [1]: induced transactivation | pIC50 [2]: 6.30 to 6.70 | concentrations that decrease AR and PSA expression [3]: 1 to 2.5 µM | degradation of cyclin D1 after cotreatment with MG132 [3]: inhibited | downregulation of AR, PSA and FKBP51 proteins after cotreatment with T007 or MG132 [3]: not affected | induced proapoptotic responses after cotreatment with T007 [3]: not inhibited | JNK (p-JNK), PI3K (p-Akt) and MAPK (p-Erk) pathways ([3]; 2.5 μM): induces activation | decreased expression of AR, PSA and FKBP51 with kinase inhibitors ([3]; 2.5 μM): unaffected | induction of EGR-1, ATF-3 and NAG-1 ([3]; 2.5 μM): time-dependent induction | p-Erk activation ([3]; 2.5 μM): remained elevated for 24 hr | time of maximal activation of JNK ([3]; 2.5 μM): 8 h | time of maximal activation of PI3K ([3]; 2.5 μM): 8 to 12 h | AR, PSA and FKBP51 expression ([3]; 1-5 μM, presence or absence of 10 nM DHT): concentration-dependent decrease | NAG-1 and ATF-3 proapoptotic proteins ([3]; 24 hr, 1-5 μM): induced | cyclin D1 proteins and Rb phosphorylation ([3]; 24 hr, 1-5 μM): decrease | p27 and p21 proteins ([3]; 24 hr, 1-5 μM): concentration-dependent induction | proapoptotic responses accompanying NAG-1/ATF-3 induction ([3]; 24 hr, 1-5 μM): caspase-dependent PARP cleavage, DNA fragmentation, and decreased bcl2 expression | time course of PARP cleavage, AR and Sp1 ([3]; up to 24 hr): time-dependent induction of PARP cleavage and a decrease of both AR and Sp1 | pIC50 [4]: 5.60 to 6.00 | transactivation of PPRE3-Luc [5]: induced transactivation | PPRE3-Luc transactivation after cotreatment with PPARγ antagonists T007 and GW9662 ([5]; 10 μM antagonist): inhibited
